Data taken from US9938240B2, “Fluorinated derivatives of 3-hydroxypyridin-4-ones” (Apotex Technologies Inc., priority 2009, dated 2018).

What was measured:
[1] = Benzoic acid hydroxylation assay; conditions: benzoic acid 1 mM, H2O2 6 mM, FeCl3 30 μM, chelator 30 μM, pH 7.4, up to 81 h
From the text: Benzoic acid is a hydroxyl radical scavenger and reacts with hydroxyl radical to give 2-hydroxy, 3-hydroxy and 4-hydroxybenzoic acids. The benzoic acid hydroxylation assay is a chemical assay designed to detect damage caused by hydroxyl radical (Dean and Nicholson, Free Radical Research 1994, vol 20, 83-101). For example, deferiprone suppresses the formation of hydroxybenzoic acids in the presence of iron salts and hydrogen peroxide, while EDTA and iron salts allow such hydroxylation reactions to take place.
This screening assay involves the use of iron salt, benzoic acid, hydrogen peroxide and the chelator and measures the ability of the chelator to inhibit the formation of hydroxybenzoate as an indicator to prevent hydroxyl radical formation in living system.
Briefly, this procedure is based on the ability of hydroxyl radicals to hydroxylate benzoate to give 2-, 3- and 4-hydroxylated benzoic acid products. Benzoic acid (1 mM) is incubated over time up to 81 h at room temperature in the dark in 10 mM phosphate buffer (pH 7.4) with 6 mM hydrogen peroxide, ferric chloride (30 μM) and the Fe chelator (30 μM). HPLC is the method of choice used to monitor and quantify the amount of 2-, 3- and 4-hydroxylated products formed over time in the reaction mixture, and can be verified against authentic benzoic acid and its hydroxylated products via their respective retention times and areas under curve. In addition, several controls are used: (i) a control without added Fe stock solution and Fe chelator; (ii) a control without added Fe chelator; (iii) EDTA as positive control; and (iv) deferiprone as negative control. The Fe-EDTA system is a hydroxyl radical generator and is known to promote hydroxylation of benzoic acid.

SV-NRA cells = assay: MPP+ treated SV-NRA cell viability (MTT); format: cell-based; conditions: 5 mM MPP+ treated SV-NRA cells, 20 μM, 24 h, p<0.05
Procedure: SV-NRAs cells were plated in a 96-well plate at a density of 10,000 cells/well in 100 μL of DME […], high glucose 1× liquid (Sigma) supplemented with 10% heat-inactivated FBS and 1× antibiotic/antimycotic solution (Sigma). On the next day, the cells were washed with EMEM media (Eagle's minimal essential media; phenol red, serum and glutamine free) and treated for 24 h with 5 mM MPP^+ (1-methyl-4-phenylpyridinium) in EMEM media in the presence or absence of a tested iron chelating compound. All compounds were tested at the following concentrations: 10 μM, 20 μM, and 40 μM. After 24 h of incubation, cell viability was determined with MTT ((3-(4,5-Dimethylthiazol-2-yl)-2,5-diphenyltetrazolium bromide, a yellow tetrazole) assay which measures mitochondrial activity (Carmichael et al. Cancer Research 1987, 47, 936-942). MTT solution (10 μL, 5 mg/mL) was added to the wells and incubated for 2 h. Formazan product was solubilized with 100 μL of 10% SDS (sodium dodecyl sulphate) in 0.01M HCl. Optical density was determined at 570 nm using Multiscan Ascent plate reader (Labsystems) and data collected were corrected for background signal measured at 650 nm. All data are expressed as % of control.
Co-treatment with iron chelators protected the cells from MPP^+ toxicity.

In the case of CN(C)C(c1c(O)c(=O)ccn1C)C(F)(F)F (centres unmarked) [Apo7041, 2-[1-(dimethylamino)-2,2,2-trifluoroethyl]-3-hydroxy-1-methylpyridin-4(1H)-one], the “hydroxylation of benzoic acid by Fe chelate” value [1] is reported as “do not promote the hydroxylation of benzoic acid”.
In the case of Cc1c(O)c(=O)ccn1C [Deferiprone, 3-hydroxy-1,2-dimethylpyridin-4(1H)-one, reference compound], the “increase in cell viability” value (SV-NRA cells) is reported as “about 20%”.
